Test results reported in patent EP4389751A1, “HETEROCYCLIC COMPOUNDS AND USES THEREOF” (Kumquat Biosciences Inc., priority 2021, dated 2024).
pIC50: −log10 of the molar value. Where two headings read alike, the source gives them in different places.

Legend:
K-Ras G12S = target: T1, K-Ras G12S (Homo sapiens, UniProt P01116, G12S); test: HTRF assay of the K-Ras / SOS1 interaction; type: biochemical; conditions: IC50 (against K-Ras G12D) to IC50 (against K-Ras G12S)
T1 construct: made in house; host or cells: E. coli (e.g., BL21 (DE3))
T1 sequence (P01116 1-188 isoform P01116-2 G12S): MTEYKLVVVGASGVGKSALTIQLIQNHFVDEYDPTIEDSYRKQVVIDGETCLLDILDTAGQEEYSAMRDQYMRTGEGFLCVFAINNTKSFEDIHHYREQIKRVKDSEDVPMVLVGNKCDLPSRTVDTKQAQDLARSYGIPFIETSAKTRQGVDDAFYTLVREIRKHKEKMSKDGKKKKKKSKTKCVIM
Summary of the method: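 Compounds (duplicates, 10 µM to 0.01 µM) were incubated ≥~10 min with Eu-labelled GST-K-Ras G12S and XL665-labelled His-hSOS1 in HEPES pH 7.4 buffer containing NaCl, DTT, BSA and Igepal. Disruption measured as HTRF emission ratio 665/620 nm, fitted to IC50.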

GP2D cells = test: Cell proliferation assay (CellTiter-Glo), K-Ras G12D cells; type: cell-based; conditions: read-out: Inhibition of GP2D Cells (IC50)
Procedure: ASPC-1 (ATCC CRL-1682), Panc-10.05 (ATCC CRL-2547), A427, and GP2D (Sigma 95090714) cell lines comprise a G12D mutation and can be used to assess Ras cellular signaling in vitro, e.g., in response to the compounds herein. […] ASPC-1 culture medium is prepared with RPMI-1640 and 10% heat-inactivated FBS. Panc-10.05 culture medium is prepared with RPMI-1640, 10 Units/ml human recombinant insulin, and 10% FBS. A427 cell culture is prepared with RPMI-1640 and 10% heat-inactivated FBS. GP2D culture medium is prepared with DMEM with 2mM glutamine and 10% heat-inactivated FBS. A Cell Titer-Glo (CTG) luminescent based assay (Promega) is used to assess growth of the cells, as a measurement of the ability of the compounds herein to inhibit Ras signaling in the cells. The cells (e.g., 800 per well) are seeded in their respective culture medium in standard tissue culture-treated 384-well format plates (Falcon #08-772-116) or ultra-low attachment surface 384-well format plates (S-Bio # MS-9384UZ ). The day after plating, cells are treated with a dilution series (e.g., a 9 point 3-fold dilution series) of the compounds herein (e.g., approximately 40 µl final volume per well). Cell viability can be monitored (e.g., approximately 5 days later) according to the manufacturer's recommended instructions, where the CellTiter-Glo reagent is added (e.g., approximately 10 µl), vigorously mixed, covered, and placed on a plate shaker (e.g., approximately for 20 min) to ensure sufficient cell lysis prior to assessment of luminescent signal. The IC50 values are determined using the four parameter fit. The resulting IC50 value is a measurement of the ability of the compounds herein to reduce cell growth of Ras-driven cells (e.g., tumor cell lines) in vitro and/or in vivo.

Q: For `Nc1nc2c(-c3c(Cl)cc4c(NCCN5CC6CCC(C5)N6C(=O)n5cncn5)nc(OC[C@@]56CCCN5C[C@H](F)C6)nc4c3F)ccc(F)c2s1` [Compound A168, (3-(2-((7-(2-amino-7-fluorobenzo[d]thiazol-4-yl)-6-chloro-8-fluoro-2-(((2R,7aS)-2-fluorotetrahydro-1H-pyrrolizin-7a(5H)-yl)methoxy)quinazolin-4-yl)amino)ethyl)-3,8-diazabicyclo[3.2.1]octan-8-yl)(1H-1,2,4-triazol-1-yl)methanone], which “Ratio of IC50 KRAS G12D vs. IC50 KRAS G12S” value (shortened to “Ratio”) (K-Ras G12S) is on record?
A: A (A: indicates that the ratio of IC50 against KrasG12D vs. IC50 against KrasG12S is 1-fold or greater)

Q: And the pIC50 (GP2D cells; GP2d)?
A: 5.00 to 6.00

Q: How did the “Ratio” value (K-Ras G12S) turn out when `Nc1nc2c(-c3c(Cl)cc4c(NC5CCN(C(=O)n6cncn6)CC5)nc(OC[C@@]56CCCN5C[C@H](F)C6)nc4c3F)ccc(F)c2s1` [Compound A187, (4-((7-(2-amino-7-fluorobenzo[d]thiazol-4-yl)-6-chloro-8-fluoro-2-(((2R,7aS)-2-fluorotetrahydro-1H-pyrrolizin-7a(5H)-yl)methoxy)quinazolin-4-yl)amino)piperidin-1-yl)(1H-1,2,4-triazol-1-yl)methanone] was run?
A: A (A: indicates that the ratio of IC50 against KrasG12D vs. IC50 against KrasG12S is 1-fold or greater)

Q: What about the pIC50 (GP2D cells; GP2D cells (K-Ras G12D)) of the same compound?
A: 5.00 to 6.00

Q: For `N#Cc1ccn(C(=O)N2C3CCC2CN(c2nc(OC[C@@]45CCCN4C[C@H](F)C5)nc4c(F)c(-c5ccc(F)c6sc(N)nc56)c(Cl)cc24)C3)c1` [Compound A188, 1-(3-(7-(2-amino-7-fluorobenzo[d]thiazol-4-yl)-6-chloro-8-fluoro-2-(((2R,7aS)-2-fluorotetrahydro-1H-pyrrolizin-7a(5H)-yl)methoxy)quinazolin-4-yl)-3,8-diazabicyclo[3.2. 1]octane-8-carbonyl)-1H-pyrrole-3-carbonitrile], which “Ratio” value (K-Ras G12S) is on record?
A: A (A: indicates that the ratio of IC50 against KrasG12D vs. IC50 against KrasG12S is 1-fold or greater)

Q: What about the pIC50 (GP2D cells; GP2d) of the same compound?
A: ≥ 6.00

Q: What does the source list for `Nc1nc2c(-c3c(Cl)cc4c(NC5CCN(C(=O)n6cnc(F)c6)CC5)nc(OC[C@@]56CCCN5C[C@H](F)C6)nc4c3F)ccc(F)c2s1` [Compound A193, (4-((7-(2-amino-7-fluorobenzo[d]thiazol-4-yl)-6-chloro-8-fluoro-2-(((2R,7aS)-2-fluorotetrahydro-1H-pyrrolizin-7a(5H)-yl)methoxy)quinazolin-4-yl)amino)piperidin-1-yl)(4-fluoro-1H-imidazol-1-yl)methanone]?
A: Ratio of IC50 KRAS G12D vs. IC50 KRAS G12S (K-Ras G12S): A (A: indicates that the ratio of IC50 against KrasG12D vs. IC50 against KrasG12S is 1-fold or greater); pIC50 (GP2D cells; GP2D cells (K-Ras G12D)): 5.00 to 6.00

Q: Which results are given for `Cc1cnn(C(=O)N2CCN(c3nc(OC[C@@]45CCCN4C[C@H](F)C5)nc4c(F)c(-c5ccc(F)c6sc(N)nc56)c(Cl)cc34)CC(F)(F)C2)c1` [Compound A203, (4-(7-(2-amino-7-fluorobenzo[d]thiazol-4-yl)-6-chloro-8-fluoro-2-(((2R,7aS)-2-fluorotetrahydro-1H-pyrrolizin-7a(5H)-yl)methoxy)quinazolm-4-yl)-6,6-difluoro-1,4-diazepan-1-yl)(4-methyl-1H-pyrazol-1-yl)methanone]?
A: Ratio of IC50 KRAS G12D vs. IC50 KRAS G12S (K-Ras G12S): A (A: indicates that the ratio of IC50 against KrasG12D vs. IC50 against KrasG12S is 1-fold or greater); pIC50 (GP2D cells; GP2D cells (K-Ras G12D)): 5.00 to 6.00

Q: For `N#Cc1c(N)sc2c(F)ccc(-c3ncc4c(N5CC6CCC(C5)N6C(=O)n5cncn5)nc(OC[C@@]56CCCN5C[C@H](F)C6)nc4c3F)c12` [Compound A206, 4-(4-(8-(1H-1,2,4-triazole-1-carbonyl)-3,8-diazabicyclo[3.2.1]octan-3-yl)-8-fluoro-2-(((2R,7aS)-2-fluorotetrahydro-1H-pyrrolizin-7a(5H)-yl)methoxy)pyrido[4,3-d]pyrimidin-7-yl)-2-amino-7-fluorobenzo[b]thiophene-3-carbonitrile], which “Ratio” value (K-Ras G12S) is on record?
A: A (A: indicates that the ratio of IC50 against KrasG12D vs. IC50 against KrasG12S is 1-fold or greater)

Q: And the pIC50 (GP2D cells; GP2D cells (K-Ras G12D))?
A: ≥ 6.00

Q: Which “Ratio” value (K-Ras G12S) does the source give for `Nc1nc2c(-c3c(Cl)cc4c(NC5CC6(C5)CN(C(=O)n5cncn5)C6)nc(OC[C@@]56CCCN5C[C@H](F)C6)nc4c3F)ccc(F)c2s1` [Compound A211, (6-((7-(2-amino-7-fluorobenzo[d]thiazol-4-yl)-6-chloro-8-fluoro-2-(((2R,7aS)-2-fluorotetrahydro-1H-pyrrolizin-7a(5H)-yl)methoxy)quinazolin-4-yl)amino)-2-azaspiro[3.3]heptan-2-yl)(1H-1,2,4-triazol-1-yl)methanone] here?
A: A (A: indicates that the ratio of IC50 against KrasG12D vs. IC50 against KrasG12S is 1-fold or greater)

Q: What about the pIC50 (GP2D cells; GP2D cells (K-Ras G12D)) of the same compound?
A: 5.00 to 6.00

Q: For `Nc1nc2c(-c3c(Cl)cc4c(NC5CCN(C(=O)n6ccc(F)n6)CC5)nc(OC[C@@]56CCCN5C[C@H](F)C6)nc4c3F)ccc(F)c2s1` [Compound A222, (4-((7-(2-amino-7-fluorobenzo[d]thiazol-4-yl)-6-chloro-8-fluoro-2-(((2R,7aS)-2-fluorotetrahydro-1H-pyrrolizin-7a(5H)-yl)methoxy)quinazolin-4-yl)amino)piperidin-1-yl)(3-fluoro-1H-pyrazol-1-yl)methanone], which “Ratio” value (K-Ras G12S) is on record?
A: A (A: indicates that the ratio of IC50 against KrasG12D vs. IC50 against KrasG12S is 1-fold or greater)

Q: What about the pIC50 (GP2D cells; GP2D cells (K-Ras G12D)) of the same compound?
A: 5.00 to 6.00

Q: Which results are given for `C#Cc1c(F)ccc2cc(O)cc(-c3ncc4c(N5C6COCC5CN(C(=O)n5cc(C#N)cn5)C6)nc(OC[C@@]56CCCN5C[C@H](F)C6)nc4c3F)c12` [Compound A226, 1-(9-(7-(8-ethynyl-7-fluoro-3-hydroxynaphthalen-1-yl)-8-fluoro-2-(((2R,7aS)-2-fluorotetrahydro-1H-pyrrolizin-7a(5H)-yl)methoxy)pyrido[4,3-d]pyrimidin-4-yl)-3-oxa-7,9-diazabicyclo[3.3.1]nonane-7-carbonyl)-1H-pyrazole-4-carbonitrile]?
A: Ratio of IC50 KRAS G12D vs. IC50 KRAS G12S (K-Ras G12S): A (A: indicates that the ratio of IC50 against KrasG12D vs. IC50 against KrasG12S is 1-fold or greater); pIC50 (GP2D cells; GP2D cells (K-Ras G12D)): 5.00 to 6.00

Q: Which results are given for `N#Cc1c(N)sc2c(F)ccc(-c3c(Cl)cc4c(C5C[C@H]6CC[C@@H](C5)N6C(=O)n5cncn5)nc(OC[C@@]56CCCN5C[C@H](F)C6)nc4c3F)c12` (stereo partly drawn) [Compound A235, 4-(4-((1R,5S)-8-(1H-1,2,4-triazole-1-carbonyl)-8-azabicyclo[3.2.1]octan-3-yl)-6-chloro-8-fluoro-2-(((2R,7aS)-2-fluorotetrahydro-1H-pyrrolizin-7a(5H)-yl)methoxy)quinazolin-7-yl)-2-amino-7-fluorobenzo[b]thiophene-3-carbonitrile]?
A: Ratio of IC50 KRAS G12D vs. IC50 KRAS G12S (K-Ras G12S): A (A: indicates that the ratio of IC50 against KrasG12D vs. IC50 against KrasG12S is 1-fold or greater); pIC50 (GP2D cells; GP2D cells (K-Ras G12D)): 5.00 to 6.00

Q: What does the source list for `N#Cc1nccn1C(=O)N1CC2CCC(C1)N2c1nc(OC[C@@]23CCCN2C[C@H](F)C3)nc2c(F)c(-c3ccc(F)c4sc(N)nc34)c(Cl)cc12` [Compound A238, 1-(8-(7-(2-amino-7-fluorobenzo[d]thiazol-4-yl)-6-chloro-8-fluoro-2-(((2R,7aS)-2-fluorotetrahydro-1H-pyrrolizin-7a(5H)-yl)methoxy)quinazolm-4-yl)-3,8-diazabicyclo[3.2. 1]octane-3-carbonyl)-1H-imidazole-2-carbonitrile]?
A: Ratio of IC50 KRAS G12D vs. IC50 KRAS G12S (K-Ras G12S): A (A: indicates that the ratio of IC50 against KrasG12D vs. IC50 against KrasG12S is 1-fold or greater); pIC50 (GP2D cells; GP2D cells (K-Ras G12D)): ≥ 6.00
